The test system of assay [1] is muscarine receptors in the ileum. Kind of assay: In vitro dissociation constant on ileum, methacholine antagonism. Type of assay: cell-based, guinea pig. As to conditions: guinea pig. The procedure:
(§1) Substances having anti-muscarine properties inhibit the effects of exogenically introduced agonists or of acetylcholine which is released from cholinergic nerve endings. A description of methods which are suitable for determining spasmolytically active anti-muscarine agents is given below.
(§2) Dissociation constants ([…]) were determined "in vitro" on the ileum and spontaneously beating vestibule of a guinea pig. The ileum was removed and incubated in an organ bath in Krebs- Henseleit solution. Contractions were induced by increasing concentrations of methacholine (M) such that complete concentration-activity graphs could be plotted. M was then washed out, the substance to be investigated was added and incubated for 30 minutes, and once again a concentration-activity graph was plotted using M.
(§3) Dissociation constants for the muscarine receptors of the vestibule were obtained in the same manner as described above.

For assay [2], the target named is T1, muscarine receptors in the ileum (Cavia porcellus, UniProt H0W1Z3).
T1 construct: The ileum was removed and incubated in an organ bath; from tissue; host or cells: isolated ileum of guinea pig
The description is as above. Type of assay: cell-based, guinea pig. As to conditions: guinea pig ileum. The procedure: as §1, §2, §3

Assay [3] deals with T2, muscarine receptors of the vestibule (Cavia porcellus, UniProt H0VRN8).
T2 construct: in the removed, spontaneously beating right vestibule; from tissue; host or cells: isolated spontaneously beating right atrium ('vestibule') of guinea pig
T2 sequence (H0VRN8 1-466): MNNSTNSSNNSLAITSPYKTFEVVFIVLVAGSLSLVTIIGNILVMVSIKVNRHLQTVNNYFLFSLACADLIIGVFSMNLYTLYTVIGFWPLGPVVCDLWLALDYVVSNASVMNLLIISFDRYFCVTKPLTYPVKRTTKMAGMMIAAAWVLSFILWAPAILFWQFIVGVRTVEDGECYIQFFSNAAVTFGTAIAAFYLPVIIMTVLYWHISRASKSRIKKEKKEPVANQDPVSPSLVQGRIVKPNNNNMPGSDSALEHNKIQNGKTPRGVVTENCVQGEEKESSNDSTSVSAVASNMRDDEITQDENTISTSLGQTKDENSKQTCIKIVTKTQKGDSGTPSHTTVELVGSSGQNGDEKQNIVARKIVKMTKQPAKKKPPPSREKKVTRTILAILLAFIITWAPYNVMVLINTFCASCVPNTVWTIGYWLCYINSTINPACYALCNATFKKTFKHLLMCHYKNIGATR
Kind of assay: In vitro dissociation constant on spontaneously beating vestibule (heart), methacholine antagonism. Particulars: guinea pig spontaneously beating vestibule. The assay is classed as cell-based. The procedure:
as §1, §2
The dissociation constant according to Arunlakshana and Schild (Brit. J. Pharmacol. 14; 48 (1959)) Was calculated from the dosage ratio (DR) which is the measure of the displacement of the concentration-activity graph.
M reduced the heart rate as a function of concentration in the removed, spontaneously beating right vestibule. This effect was cancelled again by adding an anti-muscarine agent. Dissociation constants for the muscarine receptors of the vestibule were obtained in the same manner as described above. The comparison of the dissociation constants determined in both tissues permitted the identification of selectively spasmolytically active substances.

The target in assay [4] is T3, M receptors of the heart (Cavia porcellus, UniProt H0VRN8).
T3 construct: from tissue; host or cells: heart of anaesthetised guinea pigs (in vivo)
T3 sequence (H0VRN8 1-466): T2 sequence (H0VRN8 1-466)
Description: Acetylcholine antagonism in anaesthetised guinea pigs: inhibition of bradycardia. Type of assay: in vivo, guinea pig. Particulars: iv, 5 min; guinea pig, i.v., acetylcholine antagonism (bradycardia), n=4-6; read-out: -log ED50 heart (converted). From the text: (§4) The methods used had the aim of confirming the selectivity of the anti-muscarine effect. Any substances which had been selected on the basis of "in vitro" investigations were investigated for
(§5) 1. Effect on M receptors of the bronchial tubes, the heart and the bladder of anaesthetised guinea pigs
(§6) Guinea pigs of both sexes (550-600 g body weight) were anaesthetised using urethane (1.4 g/kg intraperitoneally). A cannula was introduced into the augular vein to inject the active agents. 220 I.U./kg of heparin were injected intravenously. A cannula was introduced into the trachea; the animals were artificially respirated by means of a positive pressure pump (Braun-Melsungen) using oxygen-enriched air at a rate of 80 beats per minute. A branch of the tracheal cannula was connected to a water manometer 10 cm high. The respiration volume was set such that the maximum intratracheal pressure just reached the pressure of a 10 cm water column during respiration.
(§7) The values were recorded using an IFD recording apparatus. The trachea was clamped for a short time before the test to produce the maximum possible degree of bronchoconstriction for calibration. […] The heart rate was measured using a rate detector which is triggered by arterial pulse waves.
(§8) The active substances to be tested were injected via the jugular vein, 5 minutes later the increase in tone of the bladder (in grams) the bronchial resistance (in %) and the decrease in heart rate (beats per minute) were measured after administration of acetylcholine (50 μg/kg intravenously and intraarterially). Dosage-dependency graphs were drawn by plotting the percentage inhibition of bronchoconstriction, bradycardia and the increase in tone of the bladder against the logarithm of the dosage (mole/kg) of the active agents to be investigated. The results are given as average values (n=4-6).

A further assay relates to guinea pig ileum. Kind of assay: In situ spasmolytic effect in guinea pigs (methacholine-induced ileum contractions). The assay is classed as in vivo. As to conditions: i.v.; for ED50: Cavia porcellus, iv, 5 min, guinea pig, methacholine 20 μg/kg intraarterially, n=4 to 8, read-out: -log ED50 in situ spasmolysis guinea pig ileum (converted); for Ratio saliva secretion inhibition to spasmolytic activity: rat saliva secretion vs guinea pig ileum in situ.
From the text: as §4
3. in situ spasmolytic activity in the guinea pig.
3 In situ spasmolytic effect in guinea pigs
Male guinea pigs (500 to 600 g body weight) were anaesthetised using urethane (1.2 g/kg intraperitoneally);cannulae Were introduced into the trachea, jugular vein and the left carotid artery. The animals were artificially respirated by means of a positive pressure pump using oxygen-enriched air at a beat frequency of 80 per minute. A 3 to 4 cm abdominal incision was made and about 15 cm of a movable loop of the ileum was removed distally while maintaining the blood circulation. The proximal part was filled with a Krebs-Ringer solution and a pressure meter was introduced into the intestine using a Millar micro-tip catheter (PC-450, 5F). A glass tube was placed vertically in the abdomen and attached to the surrounding abdominal wall such that the animal served as its own organ bath when the glass tube was filled with Krebs-Ringer solution.
The glass tube was filled with Krebs-Ringer solution until the whole of the hypogastrium was immersed. The active agents to be tested were injected via the jugular vein; 5 minutes later contractions were produced by means of methacholine (20 μg/kg intraarterially). Dosage-activity graphs were obtained by plotting the percentage suppression of contractions produced by methacholine against the logarithm of dosage amount (mole/kg) of the active substance to be tested.
The results were given as average values (n=4 to 8) (see Table II).

The subject of assay [5] is M receptors of the bronchial tubes. Kind of assay: Acetylcholine antagonism in anaesthetised guinea pigs: inhibition of bronchoconstriction. As to conditions: for Ratio influence of bradycardia to bronchoconstriction: guinea pig, i.v., ratio heart (bradycardia) to bronchial tubes; for selectivity for smooth muscle: smooth muscle vs heart rate or saliva secretion. The assay is classed as in vivo, guinea pig.
From the text: as §4
(§9) 1. selectivity of the bronchospasmolytic activity in the guinea pig,
as §5, §6, §7, §8

Assay [6] concerns the target T4, M receptors of the bronchial tubes (Cavia porcellus, UniProt H0W1Z3).
T4 construct: Guinea pigs of both sexes (550-600 g body weight) were anaesthetised using urethane; from tissue; host or cells: bronchi of anaesthetised guinea pigs (in vivo)
The description is as above. The assay is classed as in vivo, guinea pig. As to conditions: iv, 5 min; guinea pig, i.v., acetylcholine antagonism, n=4-6; read-out: -log ED50 bronchial tubes (converted).
From the text: as §4, §9, §5, §6, §7, §8

For assay [7], the target named is T5, M receptors of the bladder (Cavia porcellus, UniProt H0W1Z3).
T5 construct: the bladder was connected to a power transducer under a resting tension of 1 gram; from tissue; host or cells: urinary bladder of anaesthetised guinea pigs (in vivo)
Description: Acetylcholine antagonism in anaesthetised guinea pigs: inhibition of increase in tone of the bladder. Type of assay: in vivo. Particulars: iv, 5 min, guinea pig, i.v., n=4-6, read-out: -log ED50 bladder (converted).
From the text: as §4, §5, §6
A small median abdominal incision was made and the bladder was connected to a power transducer under a resting tension of 1 gram.
as §8

A further assay deals with saliva secretion. Kind of assay: Saliva secretion-inhibiting effect in the rat (pilocarpine-triggered). The assay is classed as in vivo. Particulars: iv, pilocarpine 2 mg/kg subcutaneous, 50% reduction of saliva volume, read-out: -log ED50 saliva secretion inhibition rat (converted). The procedure: as §4
2. saliva secretion-inhibiting effect in the rat, and
2. Saliva secretion-inhibitino effect in the rat
The secretion of saliva was triggered by subcutaneous administration of 2 mg/kg of pilocarpine. The saliva was absorbed using blotting paper, the surface taken up by it was determined planimetrically every 5 minutes. The dosage of the substance which reduced the volume of saliva by 50% was determined graphically.

The test system of assay [8] is M receptors of the heart. Description: Acetylcholine antagonism in anaesthetised guinea pigs: inhibition of bradycardia. The assay is classed as in vivo, guinea pig. Particulars: comparison, Tables I and III.
From the text: as §4, §5, §6, §7, §8

The values that follow come from US5179090A, “Condensed diazepinones and medicaments containing these compounds” (priority 1989, dated 1993).

T1 sequence (H0W1Z3 1-590): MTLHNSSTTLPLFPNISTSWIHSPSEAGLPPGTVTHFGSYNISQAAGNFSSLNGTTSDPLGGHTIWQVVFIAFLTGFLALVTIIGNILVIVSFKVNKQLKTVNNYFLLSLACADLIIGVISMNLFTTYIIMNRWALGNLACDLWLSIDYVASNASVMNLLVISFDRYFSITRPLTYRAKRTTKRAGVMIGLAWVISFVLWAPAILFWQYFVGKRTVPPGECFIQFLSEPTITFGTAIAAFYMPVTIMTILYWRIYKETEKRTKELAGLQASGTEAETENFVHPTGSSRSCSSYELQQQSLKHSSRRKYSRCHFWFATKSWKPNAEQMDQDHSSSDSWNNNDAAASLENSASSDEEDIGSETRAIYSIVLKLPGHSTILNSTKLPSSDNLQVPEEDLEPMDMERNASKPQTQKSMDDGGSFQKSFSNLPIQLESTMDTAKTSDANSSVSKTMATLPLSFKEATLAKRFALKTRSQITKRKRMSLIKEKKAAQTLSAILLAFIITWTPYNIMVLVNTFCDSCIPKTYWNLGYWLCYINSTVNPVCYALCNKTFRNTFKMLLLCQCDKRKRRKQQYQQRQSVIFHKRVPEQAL
T4 sequence (H0W1Z3 1-590): as above
T5 sequence (H0W1Z3 1-590): as above

With `CN1CCC2C1CCN2C(=O)N1c2ccccc2C(=O)Nc2cccnc21` (centres unmarked) [A], in assay [1], the “Selectivity KB heart to KB ileum” value is given as 6.9. For the same molecule, the Kb in assay [2] was 30.2 nM; in assay [3], 209 nM. The 50% effective dose (ED50) at M receptors of the heart [4] was 1.05 µmol/kg; with guinea pig ileum, 0.117 µmol/kg; in [6], 0.049 µmol/kg; in assay [7] it was 0.49 µmol/kg; in the assay with saliva secretion, 0.2 µmol/kg. The “Ratio saliva secretion inhibition to spasmolytic activity” value (from here on “Ratio saliva secretion inhibition”) in the assay on guinea pig ileum is on record as 2. Also, the “Ratio influence of bradycardia to bronchoconstriction” value (from here on “Ratio influence of bradycardia”) in assay [5] turned out to be 21. Also, the “selectivity for smooth muscle” value in assay [5] is on record as “very marked smooth muscle selectivity”.

With `Cc1scc2c1N(C(=O)N1CC3CN(C)CC3C1)c1ccccc1NC2=O` (centres unmarked) [D], the results for the median effective dose (ED50) (at M receptors of the heart [4]; in assay [6]; in assay [7]) were 0.741 µmol/kg, 0.0891 µmol/kg and 1.58 µmol/kg, respectively. In addition, the “Ratio influence of bradycardia” value in assay [5] was found to be 8.

`CN1CC2CN(C(=O)N3c4ccccc4C(=O)Nc4cccnc43)CC2C1` (centres unmarked) [C]: the ED50 on M receptors of the heart [4] was 4.79 µmol/kg; in the assay with guinea pig ileum, 0.708 µmol/kg; in assay [6], 0.631 µmol/kg; in [7], 3.02 µmol/kg; with saliva secretion it was 2.95 µmol/kg. Besides, the “Ratio saliva secretion inhibition” value with guinea pig ileum was 4. Also, the “Ratio influence of bradycardia” value in assay [5] is recorded as 8.

`CN1CCN(CC(=O)N2c3ccccc3C(=O)Nc3cccnc32)CC1` [Y]: the “Selectivity KB heart to KB ileum” value in [1] is on record as 0.63. The Kb in assay [2] stood at 194 nM; in assay [3], 123 nM. Moreover, the ED50 on M receptors of the heart [4] is 1.26 µmol/kg; in the assay on guinea pig ileum, 0.832 µmol/kg; in [6] it was 0.269 µmol/kg; in assay [7], 1.45 µmol/kg; in the assay with saliva secretion, 0.38 µmol/kg. Further, in the assay with guinea pig ileum, the “Ratio saliva secretion inhibition” value turned out to be 0.5. Moreover, the “Ratio influence of bradycardia” value in [5] is reported as 5. For the same molecule, in [5], the “selectivity for smooth muscle” value is reported as “no selectivity”.

Take `CN(C)CC1CCCCN1CC(=O)N1c2ccccc2C(=O)Nc2cccnc21` (centres unmarked) [X]: the “Selectivity KB heart to KB ileum” value in assay [1] was found to be 0.17. Further, the Kb is 617 nM in assay [2] and 105 nM in [3]. For the same molecule, the ED50 at M receptors of the heart [4] is 1.45 µmol/kg; in assay [6] it was 2.63 µmol/kg; in [7], 11.7 µmol/kg. The “effectiveness on cardiac muscarine receptors” value in the assay with M receptors of the heart [8] is reported as “higher effectiveness on cardiac muscarine receptors”. For the same molecule, the “Ratio influence of bradycardia” value in assay [5] came to 0.5.

Regarding `CN1[C@@H]2CC[C@H]1CC(OC(=O)C(CO)c1ccccc1)C2` (some centres unmarked) [Z], the ED50 at M receptors of the heart [4] was 0.0269 µmol/kg; with guinea pig ileum, 0.0525 µmol/kg; in assay [6], 0.00813 µmol/kg; in [7], 0.0525 µmol/kg.

Take `CN1CCC2C1CCN2C(=O)N1c2ccccc2NC(=O)c2cccnc21` (centres unmarked) [B]: the “Selectivity KB heart to KB ileum” value in assay [1] stood at 2.4. Besides, the Kb in assay [2] came out at 60.3 nM; in [3], 145 nM. In addition, the ED50 at M receptors of the heart [4] is 1.95 µmol/kg; in assay [6] it was 0.0447 µmol/kg; in assay [7], 0.813 µmol/kg. The “Ratio influence of bradycardia” value in [5] came out at 44. Also, the “selectivity for smooth muscle” value in assay [5] is given as “very marked smooth muscle selectivity”.
